Patent publication US11739098B2 (BRISTOL-MYERS SQUIBB COMPANY, priority 2017, dated 2023)

What was measured:
Format in all cases: cell-based
[1] = biological target: T1, human TLR9 (Homo sapiens, UniProt Q9NR96); assay: TLR9 inhibition reporter assay (HEK-Blue cells, SEAP reporter, ODN2006 stimulation); settings: HEK-Blue cells overexpressing human TLR9, SEAP reporter, ODN2006 5 nM
T1 construct: host or cells: HEK-Blue cells (HEK293-derived reporter line)
T1 sequence (Q9NR96 26-1032): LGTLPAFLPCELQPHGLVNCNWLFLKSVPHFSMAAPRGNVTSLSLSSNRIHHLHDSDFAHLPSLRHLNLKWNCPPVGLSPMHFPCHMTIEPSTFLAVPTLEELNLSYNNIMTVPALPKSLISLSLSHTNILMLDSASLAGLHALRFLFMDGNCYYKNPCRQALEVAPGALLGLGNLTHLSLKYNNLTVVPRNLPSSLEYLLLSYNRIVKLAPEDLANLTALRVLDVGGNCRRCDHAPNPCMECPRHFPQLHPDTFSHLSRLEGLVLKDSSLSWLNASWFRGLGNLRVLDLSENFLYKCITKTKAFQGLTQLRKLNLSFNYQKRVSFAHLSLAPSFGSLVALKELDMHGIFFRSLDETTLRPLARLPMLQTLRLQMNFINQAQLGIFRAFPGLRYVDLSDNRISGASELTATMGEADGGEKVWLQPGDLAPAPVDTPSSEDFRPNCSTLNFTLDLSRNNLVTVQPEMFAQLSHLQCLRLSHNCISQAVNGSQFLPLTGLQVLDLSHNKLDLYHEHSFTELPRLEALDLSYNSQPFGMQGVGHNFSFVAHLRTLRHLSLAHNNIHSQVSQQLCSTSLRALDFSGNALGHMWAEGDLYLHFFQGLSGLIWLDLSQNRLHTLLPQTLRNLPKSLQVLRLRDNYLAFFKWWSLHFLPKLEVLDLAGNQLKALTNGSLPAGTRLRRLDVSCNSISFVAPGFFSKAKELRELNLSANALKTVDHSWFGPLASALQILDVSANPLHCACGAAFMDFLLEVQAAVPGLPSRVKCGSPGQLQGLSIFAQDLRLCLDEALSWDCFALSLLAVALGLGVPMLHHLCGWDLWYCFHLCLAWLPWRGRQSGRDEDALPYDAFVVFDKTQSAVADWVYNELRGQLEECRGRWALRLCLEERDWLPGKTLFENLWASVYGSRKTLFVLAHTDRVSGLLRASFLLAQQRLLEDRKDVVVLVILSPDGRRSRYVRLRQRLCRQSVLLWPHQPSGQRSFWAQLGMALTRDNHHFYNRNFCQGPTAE
Outline: (§1)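 HEK-Blue cells overexpressing the receptor, with NF-κB/AP-1-driven SEAP, were pre-treated 30 min at room temperature with compound (0.05 nM–50 μM), then stimulated with gardiquimod 7.5 μM (TLR7), R848 15.9 μM (TLR8) or ODN2006 5 nM (TLR9). SEAP was read after 22 h at 37 °C as percent inhibition.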

[2] = biological target: T2, human TLR7 (Homo sapiens, UniProt Q9NYK1); assay: TLR7 inhibition reporter assay (HEK-Blue cells, SEAP reporter, gardiquimod stimulation); settings: HEK-Blue cells overexpressing human TLR7, SEAP reporter, gardiquimod 7.5 μM
T2 construct: host or cells: HEK-Blue cells (HEK293-derived reporter line)
T2 sequence (Q9NYK1 27-1049): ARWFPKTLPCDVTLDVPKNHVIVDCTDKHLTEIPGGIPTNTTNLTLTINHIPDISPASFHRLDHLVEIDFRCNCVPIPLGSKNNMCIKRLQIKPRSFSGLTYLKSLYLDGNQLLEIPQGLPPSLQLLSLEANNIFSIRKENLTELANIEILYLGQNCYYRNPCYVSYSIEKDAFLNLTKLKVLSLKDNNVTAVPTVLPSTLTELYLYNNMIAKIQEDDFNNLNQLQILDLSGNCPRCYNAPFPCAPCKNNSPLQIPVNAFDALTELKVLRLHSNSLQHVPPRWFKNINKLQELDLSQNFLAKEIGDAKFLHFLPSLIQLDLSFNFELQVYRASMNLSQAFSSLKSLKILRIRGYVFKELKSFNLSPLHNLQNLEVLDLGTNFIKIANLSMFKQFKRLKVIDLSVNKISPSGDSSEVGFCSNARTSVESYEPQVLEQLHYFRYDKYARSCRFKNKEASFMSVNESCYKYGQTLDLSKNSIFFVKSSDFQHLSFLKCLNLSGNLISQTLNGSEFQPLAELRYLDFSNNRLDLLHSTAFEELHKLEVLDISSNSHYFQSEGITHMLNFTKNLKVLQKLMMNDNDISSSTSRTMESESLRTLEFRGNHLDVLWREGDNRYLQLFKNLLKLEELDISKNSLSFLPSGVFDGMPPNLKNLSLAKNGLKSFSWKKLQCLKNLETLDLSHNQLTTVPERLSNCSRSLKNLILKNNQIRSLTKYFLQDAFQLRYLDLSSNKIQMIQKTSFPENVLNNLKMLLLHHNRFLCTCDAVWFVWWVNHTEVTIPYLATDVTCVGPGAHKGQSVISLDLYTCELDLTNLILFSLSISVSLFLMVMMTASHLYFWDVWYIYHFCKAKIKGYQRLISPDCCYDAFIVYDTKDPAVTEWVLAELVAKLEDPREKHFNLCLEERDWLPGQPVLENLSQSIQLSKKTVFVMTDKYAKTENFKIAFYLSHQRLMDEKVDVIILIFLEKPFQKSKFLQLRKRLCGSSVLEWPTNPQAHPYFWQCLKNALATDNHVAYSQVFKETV
Outline: as §1

[3] = biological target: T3, human TLR8 (Homo sapiens, UniProt Q9NR97); assay: TLR8 inhibition reporter assay (HEK-Blue cells, SEAP reporter, R848 stimulation); settings: HEK-Blue cells overexpressing human TLR8, SEAP reporter, R848 15.9 μM
T3 construct: host or cells: HEK-Blue cells (HEK293-derived reporter line)
T3 sequence (Q9NR97 27-1041): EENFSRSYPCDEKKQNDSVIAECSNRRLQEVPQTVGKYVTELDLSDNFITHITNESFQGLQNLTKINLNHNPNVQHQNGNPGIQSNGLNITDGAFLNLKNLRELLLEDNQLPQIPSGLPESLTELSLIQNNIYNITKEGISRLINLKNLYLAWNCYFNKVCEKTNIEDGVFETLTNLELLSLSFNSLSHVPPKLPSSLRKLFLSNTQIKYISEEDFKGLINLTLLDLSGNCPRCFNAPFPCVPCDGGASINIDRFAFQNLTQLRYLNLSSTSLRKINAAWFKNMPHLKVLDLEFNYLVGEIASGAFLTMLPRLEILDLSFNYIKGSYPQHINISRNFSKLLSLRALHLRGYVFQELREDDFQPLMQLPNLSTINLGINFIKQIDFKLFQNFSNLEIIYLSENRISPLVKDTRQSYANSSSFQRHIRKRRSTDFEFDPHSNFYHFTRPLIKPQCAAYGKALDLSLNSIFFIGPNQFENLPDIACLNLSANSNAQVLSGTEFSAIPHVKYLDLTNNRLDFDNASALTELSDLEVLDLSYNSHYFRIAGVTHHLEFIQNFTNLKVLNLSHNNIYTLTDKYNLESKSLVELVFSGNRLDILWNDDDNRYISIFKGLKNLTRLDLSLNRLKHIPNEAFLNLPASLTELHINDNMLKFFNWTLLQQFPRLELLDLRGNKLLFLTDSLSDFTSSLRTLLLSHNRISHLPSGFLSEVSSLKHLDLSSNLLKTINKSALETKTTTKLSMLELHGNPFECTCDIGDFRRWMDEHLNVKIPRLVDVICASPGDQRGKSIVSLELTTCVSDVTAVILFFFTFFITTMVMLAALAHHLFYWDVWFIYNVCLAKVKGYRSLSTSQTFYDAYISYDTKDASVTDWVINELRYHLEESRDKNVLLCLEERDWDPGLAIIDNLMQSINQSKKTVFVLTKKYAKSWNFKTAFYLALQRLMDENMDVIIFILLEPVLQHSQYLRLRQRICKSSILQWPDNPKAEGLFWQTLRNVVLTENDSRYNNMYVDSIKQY
Outline: as §1

Row | Structure (SMILES) | IC50 [1] | IC50 [2] | IC50 [3]
1 | Cc1cc2nccn2cc1-c1[nH]c2ccc(C3CCN(C4CCOCC4)CC3)cc2c1C(C)C [Example 693, 6-(3-isopropyl-5-(1-(tetrahydro-2H-pyran-4-yl)piperidin-4-yl)-1H-indol-2-yl)-7-methylimidazo[1,2-a]pyridine] | 100 to 1000 nM | < 100 nM | < 100 nM
2 | CCc1c(-c2ccnc3[nH]ncc23)[nH]c2c(F)cc(C3CCNCC3)cc12 [Example 251, 4-(3-ethyl-7-fluoro-5-(piperidin-4-yl)-1H-indol-2-yl)-1H-pyrazolo[3,4-b]pyridine] | 100 to 1000 nM | < 100 nM | 100 to 1000 nM
3 | CC(C)c1c(-c2ncnn3cccc23)[nH]c2ccc(C3CCN(CC(=O)N(C)C)CC3)cc12 [Example 424, 2-(4-(3-isopropyl-2-(pyrrolo[2,1-f][1,2,4]triazin-4-yl)-1H-indol-5-yl)piperidin-1-yl)-N,N-dimethylacetamide] | 100 to 1000 nM | 100 to 1000 nM | 100 to 1000 nM
4 | CC(C)c1c(-c2ccnc3[nH]ncc23)[nH]c2ccc(C3CCN(C(=O)CN4CCNC(=O)C4)CC3)cc12 [Example 587, 4-(2-(4-(3-isopropyl-2-(1H-pyrazolo[3,4-b]pyridin-4-yl)-1H-indol-5-yl)piperidin-1-yl)-2-oxoethyl) piperazin-2-one] | > 50000 nM | 100 to 1000 nM | 100 to 1000 nM
5 | Cc1cc(-c2[nH]c3ccc(C4CCN(C5COC5)CC4)cc3c2C(C)C)cc2cnnn12 [Example 744, 5-(3-isopropyl-5-(1-(oxetan-3-yl)piperidin-4-yl)-1H-indol-2-yl)-7-methyl-[1,2,3]triazolo[1,5-a]pyridine] | 1000 to 50000 nM | < 100 nM | < 100 nM
6 | Cc1cc(-c2[nH]c3ccc(C4CCNCC4)cc3c2C(C)C)cn2c(C)cnc12 [Example 121, 6-(3-isopropyl-5-(piperidin-4-yl)-1H-indol-2-yl)-3,8-dimethylimidazo[1,2-a]pyridine] | 1000 to 50000 nM | < 100 nM | 1000 to 50000 nM
7 | CC(C)c1c(-c2ccnc3[nH]ncc23)[nH]c2ccc(C3CCN(Cc4cnc(N)s4)CC3)cc12 [Example 926, 5-((4-(3-isopropyl-2-(1H-pyrazolo[3,4-b]pyridin-4-yl)-1H-indol-5-yl)piperidin-1-yl)methyl)thiazol-2-amine] | 1000 to 50000 nM | < 100 nM | < 100 nM
8 | Cc1cc(-c2[nH]c3ccc(C4CCN(C(=O)[C@@H]5C[C@@H](O)CN5)CC4)cc3c2C(C)C)cc2nccn12 [Example 539, ((2S,4R)-4-hydroxypyrrolidin-2-yl)(4-(3-isopropyl-2-(5-methylimidazo[1,2-a]pyridin-7-yl)-1H-indol-5-yl)piperidin-1-yl)methanone] | 1000 to 50000 nM | 1000 to 50000 nM | 1000 to 50000 nM
9 | CC(C)c1c(-c2ccnc3c2ccn3S(C)(=O)=O)[nH]c2ccc(C3CCN(C(=O)CN(C)C)CC3)cc12 [Example 450, 2-(dimethylamino)-1-(4-(3-isopropyl-2-(1-(methylsulfonyl)-1H-pyrrolo[2,3-b]pyridin-4-yl)-1H-indol-5-yl)piperidin-1-yl)ethanone] | 100 to 1000 nM | 1000 to 50000 nM | < 100 nM
10 | CC(C)c1c(-c2ccnc3[nH]ccc23)[nH]c2ccc(C3CCNCC3)cc12 [Example 1, 4-(3-isopropyl-5-(piperidin-4-yl)-1H-indol-2-yl)-1H-pyrrolo[2,3-b]pyridine] | 1000 to 50000 nM | < 100 nM | < 100 nM
11 | Cc1cc2nnnn2cc1-c1[nH]c2ccc(C3CCN(CC(=O)N(C)C)CC3)cc2c1C(C)C [Example 314, 2-(4-(3-isopropyl-2-(7-methyltetrazolo[1,5-a]pyridin-6-yl)-1H-indol-5-yl)piperidin-1-yl)-N,N-dimethylacetamide] | 1000 to 50000 nM | < 100 nM | < 100 nM
12 | CC(C)c1c(-c2ccc3ncnn3n2)[nH]c2ccc(C3CCN(C(=O)CN(C)C)CC3)cc12 [Example 452, 1-(4-(2-([1,2,4]triazolo[1,5-b]pyridazin-6-yl)-3-isopropyl-1H-indol-5-yl)piperidin-1-yl)-2-(dimethylamino)ethan-1-one] | 1000 to 50000 nM | < 100 nM | < 100 nM
13 | Cc1cc(-c2[nH]c3ccc(C4CCN(C5COC5)CC4)cc3c2C(C)C)cc2cccnc12 [Example 723, 6-(3-isopropyl-5-(1-(oxetan-3-yl)piperidin-4-yl)-1H-indol-2-yl)-8-methylquinoline] | 1000 to 50000 nM | < 100 nM | 100 to 1000 nM
14 | COc1cc(-c2[nH]c3ccc(C4CCN(CC(=O)N(C)C)CC4)cc3c2C(C)C)cc2nc(C)cn12 [Example 334, 2-(4-(3-isopropyl-2-(5-methoxy-2-methylimidazo[1,2-a]pyridin-7-yl)-1H-indol-5-yl)piperidin-1-yl)-N,N-dimethylacetamide] | 100 to 1000 nM | 100 to 1000 nM | 100 to 1000 nM
